Assay results published in patent US6323369A, “Substituted cycloheptenes, their preparation and use” (Gruenenthal GmbH, priority 1998, dated 2001).
Structures can show the parent of a compound that is named as a salt.

Experiments:
δ-opiate receptor = biological target: T1, δ-opiate receptor (Rattus norvegicus, UniProt P33533); assay: δ-opiate receptor bonding test ((3H)-2-D-ala-deltorphin II displacement); format: binding, rat (male Wistar); conditions: rat brain membrane homogenate, 1 nmol/l (3H)-2-D-ala-deltorphin II, 90 min at 37° C., pH 7.4; mean ± standard deviation of 3 independent trials
T1 construct: performed in brain membrane homogenates; from tissue; host or cells: rat brain without cerebellum, pons and medulla oblongata, male Wistar rats (membrane homogenate)
Procedure: Tests on determining the affinity of compounds of the formula I according to the invention for the δ-opiate receptor were performed in brain membrane homogenates (homogenate from rat brain without the cerebellum, pons and medulla oblongata from male Wistar rats). In this case, freshly prepared rat brain was homogenised each time, cooled by ice, in 50 mmol/l of tris-HCl (tris-(hydroxymethyl)-aminomethane hydrochloride) (pH 7.4) and centrifuged for 10 min at 5,000 g and 4° C. After decanting and discarding the supernatant liquid, the membrane sediment was again taken up in 50 mmol/l of tris-HCl (pH 7.4) and homogenised and the homogenate was then centrifuged for 20 min at 20,000 g and 4° C. This wash stage was repeated once more. Then the supernatant liquid was decanted and the membrane sediment was homogenised in cold 50 mmol/l tris-HCl, 20% glycerol (w:v), 0.01% bacitracin (w/v) (pH 7.4) and frozen in portions until tested. For the receptor bonding tests, the portions were thawed out and diluted 1:10 with the bonding test buffer. A 50 mmol/l tris-HCl, 5 mmol/l MgCl2 (pH 7.4) supplemented with 0.1% (w:v) of bovine serum albumin was used as buffer, and 1 nmol/l of (^3 H)-2-D-ala-deltorphin II was used as a radioactive ligand in the bonding test. The proportion of non-specific bonding was determined in the presence of […] of naloxon. In further batches, the compounds according to the invention were added in a number of concentrations and the displacement of the radioactive ligand from its specific bond was determined. Three identical batches were incubated for 90 min at 37° C. and then harvested in order to determine the radioactive ligand bonded to the membrane homogenate by means of filtration through a glass fibre filter (GF/B). The radioactivity of the glass fibre filter discs was measured in a beta-counter by adding a scintillator. The affinity of compounds according to the invention for the δ-opiate receptor was calculated as IC50 in accordance with the law of mass action using non-linear regression. The K values in table 1 are given as the average value plus or minus the standard deviation of 3 quite independent trials.

[1] = tested on: phenylquinone-induced writhing in mice; assay: Anti-nociceptive activity in phenylquinone-induced writhing test in mice; format: in vivo, mouse (male NMRI); conditions: Mus musculus, iv, 10 min; i.v., phenylquinone i.p. 10 min after compound, writhing counted 5-20 min after phenylquinone; 10 animals per dose; 95% confidence range in parentheses
Procedure: The anti-nociceptive effectiveness was tested in phenylquinone-induced writhing in mice, modified by I. C.Hendershot, J. Forsaith, J. Pharmacol. Exp. Ther. 125, 237-240 (1959). Here, male NMRI mice with a weight of 25-30 g were used. 10 min after intravenous administration of a compound according to the invention, 0.3 ml/mouse of a 0.02% strength aqueous solution of phenylquinone was administered intraperitoneally to groups of 10 animals per substance dose (phenylbenzoquinone, Sigma, Deisenhofen; solution prepared by adding 5% ethanol and storing in a water bath at 45° C.). The animals were placed individually in observation cages. Using a push button counter,the number of pain-induced stretching movements (so-called writhing reactions=straightening the body while stretching out the back extremities) was counted 5-20 min after administration of the phenylquinone. From the dose-dependent decrease in writhing reactions as compared with groups of animals tested in parallel to which no compounds according to the invention had been administered, the ED50 values for the writhing reaction were calculated using regression analysis (evaluation programme Martens EDV service, Eckental).

T1 sequence (P33533 whole entry): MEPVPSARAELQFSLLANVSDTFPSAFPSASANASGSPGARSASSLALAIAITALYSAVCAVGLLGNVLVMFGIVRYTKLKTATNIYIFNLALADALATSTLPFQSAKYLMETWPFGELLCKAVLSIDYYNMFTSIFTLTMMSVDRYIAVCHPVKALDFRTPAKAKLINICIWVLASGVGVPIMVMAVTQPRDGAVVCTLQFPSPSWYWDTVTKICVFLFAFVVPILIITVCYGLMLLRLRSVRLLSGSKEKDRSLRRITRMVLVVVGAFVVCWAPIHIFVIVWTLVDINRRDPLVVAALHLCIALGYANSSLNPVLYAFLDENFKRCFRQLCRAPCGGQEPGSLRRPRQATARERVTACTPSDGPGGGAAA

| SMILES | Ki (δ-opiate receptor) [nM] | ED50 [1] [mg/kg] |
| --- | --- | --- |
| CN(C)CC1=C(c2cccc(O)c2)CC(c2cccc(C(C)(C)C)c2)CCC1 (stereo not drawn) [Example 2g, 3-[6-(3-tert-butyl-phenyl)-2-dimethylaminomethyl-cyclohept-1-enyl]-phenol hydrochloride] | 17.5 ± 5.2 | – |
| Cc1cc(C2CCCC(CN(C)C)=C(c3cccc(O)c3)C2)cc(C)c1O (stereo not drawn) [Example 2p, 3-[2-dimethylaminomethyl)-6-(3,5-dimethyl-4-hydroxyphenyl)-cyclohept-1-enyl]-phenol hydrochloride] | 2.5 | – |
| CN(C)CC1=C(c2cccc(O)c2)CC(c2cccc3ccccc23)CCC1.Cl (stereo not drawn) [Example 2c, 3-(2-dimethylaminomethyl-6-naphth-1-yl-cyclohept-1-enyl)-phenol hydrochloride] | 24.7 ± 2.4 | 5.29 |
| CN(C)CC1=C(c2cccc(O)c2)CC(Cc2ccccc2)CCC1 (stereo not drawn) [Example 2m, 3-(6-benzyl-2-dimethylaminomethyl-cyclohept-1-enyl)-phenol hydrochloride] | 10.2 ± 1 | – |
| CN(C)CC1=C(c2cccc(O)c2)CC(c2ccc(Cl)cc2)CCC1.Cl (stereo not drawn) [Example 2a, 3-[6-(4-chlorophenyl)-2-dimethylaminomethyl-cyclohept-1-enyl]-phenol hydrochloride] | 30.3 ± 4.7 | 7.4 |
| CN(C)CC1=C(c2cccc(O)c2)CC(Cc2cccc(O)c2)CCC1 (stereo not drawn) [Example 2n, 3-[2-dimethylaminomethyl)-6-(3-hydroxybenzyl)-cyclohept-1-enyl]-phenol hydrochloride] | 7.4 ± 2.2 | – |
| CN(C)CC1=C(c2cccc(O)c2)CC(CC2CCCCC2)CCC1 (stereo not drawn) [Example 2l, 3-(6-cyclohexylmethyl-2-dimethylaminomethyl-cyclohept-1-enyl)-phenol hydrochloride] | 28.6 ± 5.8 | – |
| CN(CCc1ccccc1)CC1=C(c2cccc(O)c2)CC(c2ccccc2)CCC1.Cl (stereo not drawn) [Example 3, 3-{2-[(methylphenethylamino)-methyl]-6-phenyl-cyclohept-1-enyl}-phenol hydrochloride] | 8.3 ± 3.3 | 3.4 |
| CN(C)CC1=C(c2cccc(O)c2)CC(c2ccccc2O)CCC1 (stereo not drawn) [Example 2j, 3-[2-dimethylaminomethyl-6-(2-hydroxyphenyl)-cyclohept-1-enyl]-phenol hydrochloride] | 24.7 ± 3.1 | – |
| CN(C)CC1=C(c2cccc(O)c2)CC(c2ccc(O)c(F)c2)CCC1.Cl (stereo not drawn) [Example 2i, 3-[2-dimethylaminomethyl-6-(3-fluoro-4-hydroxyphenyl)-cyclohept-1-enyl]-phenol hydrochloride] | 14.6 ± 2.2 | 0.89 |
| CN(C)CC1=C(c2cccc(O)c2)CC(c2ccc3cc(O)ccc3c2)CCC1 (stereo not drawn) [Example 2h, hydrochloride] | 19.4 ± 4.7 | 6.22 |
| CN(C)CC1=C(c2cccc(O)c2)CC(CCc2ccccc2)CCC1 (stereo not drawn) [Example 2o, 3-(2-dimethylaminomethyl-6-phenethyl-cyclohept-1-enyl)-phenol hydrochloride] | 30.6 ± 10.5 | – |
| CN(C)CC1=C(c2cccc(O)c2)CC(c2cccc(O)c2)CCC1.Cl (stereo not drawn) [Example 1, 3-[2-dimethylaminomethyl-6-(3-hydroxyphenyl)-cyclohept-1-enyl]-phenol hydrochloride] | 1.4 ± 0.8 | 3.31 |
| CN(C)CC1=C(c2cccc(O)c2)CC(c2ccccc2)CCC1.Cl (stereo not drawn) [Example 2b, 3-(2-dimethylaminomethyl-6-phenyl-cyclohept-1-enyl)-phenol hydrochloride] | 3.8 ± 0.2 | 4.48 |
| CN(C)CC1=C(c2cccc(O)c2)CC(c2ccc3ccccc3c2)CCC1.Cl (stereo not drawn) [Example 2d, 3-(2-dimethylaminomethyl-6-naphth-2-yl-cyclohept-1-enyl]-phenol hydrochloride] | 31.5 ± 5.9 | 7.56 |
| Cc1cccc(C2CCCC(CN(C)C)=C(c3cccc(O)c3)C2)c1 (stereo not drawn) [Example 2f, 3-(2-dimethylaminomethyl-6-m-toluyl-cyclohept-1-enyl]-phenol hydrochloride] | 3.2 ± 0.8 | – |
| CN(C)CC1=C(c2cccc(O)c2)CC(C2CCCCC2)CCC1 (stereo not drawn) [Example 2k, 3-(6-cyclohexyl-2-dimethylaminomethyl-cyclohept-1-enyl)-phenol hydrochloride] | 10.3 ± 2.2 | – |
| CN(C)CC1=C(c2cccc(O)c2)CC(c2ccc(O)cc2)CCC1.Cl (stereo not drawn) [Example 2e, 3-[2-dimethylaminomethyl-6-(4-hydroxyphenyl)-cyclohept-1-enyl]-phenol hydrochloride] | 15.2 ± 4.3 | 2.25 |
